Results: a melting point compilation (Tetko et al.; mined from patent text by program, amines drawn as free bases though some values may be those of a salt)

First: COc1ccc(C2CCN(C(=O)Nc3ccc4cc(CN5CCCC5)cnc4c3)CC2)cc1
Second: CN(Cc1ccc(NC(=O)C2=Cc3cc(Br)ccc3CCC2)cc1)C1CCOCC1
The melting point of the first is higher: 241 to 243 °C for the first, 116 to 121 °C for the second.

First: CON(C)C(=O)COc1nnc(-c2ccc3c(c2)CCO3)o1
Second: CCOc1sc(C(N)=O)c2c1-c1c(cnn1C)CC2
The melting point of the first is lower: 139 to 140 °C for the first, 200 to 202 °C for the second.

Compared with `O[C@@H]1CN(Cc2ccccc2)C[C@H]1Oc1c(Cl)cccc1Cl` (relative stereo), `O=C(NO)c1ccccc1Nc1c(Cl)cccc1Cl` is higher in melting point: 78 to 80 °C for the first, 171 to 173 °C for the second.

Compared with `CC(=O)c1c(-c2ccc(F)cc2)ncn1C1CC(C)(C)NC(C)(C)C1`, `CC(C)c1nn(-c2ccccn2)c(-c2ccc(F)cc2)c1Br` is lower in melting point: 134 to 136 °C for the first, 98 to 100 °C for the second.

First: O=C(Cn1ccnc1)c1ccc(-c2ccccc2)cc1
Second: O=C(CCc1ccccc1)c1cccnc1Nc1ccc(F)cc1
The melting point of the first is higher: 198 °C for the first, 100 to 102 °C for the second.

`Cc1sc2nc3ccc(C(N)=O)cn3c(=O)c2c1C` and `Cn1ncc2[nH]c3ccc(Cc4cccc(C(N)=O)c4)cc3c(=O)c21` cannot be ordered by melting point: 361 to 363 °C for the first, greater than 300 °C for the second.

First: CN1/C(=C\C(=S)NC(=O)c2ccccc2)C(C)(C)c2ccccc21
Second: CCc1cccc(CC)c1-n1c(C(=O)O)cnc1SCc1ccccc1
The melting point of the first is lower: 108 to 110 °C for the first, 152 to 154 °C for the second.

First: Nc1nc(N)c2nc(N)n(COC(CO)CO)c2n1
Second: O=C(Cn1c(-c2ccc(Cl)cc2)nc2cccnc21)N1CCC1
The melting point of the first is higher: 206 to 208 °C for the first, 196 to 197 °C for the second.

First: CCCCc1nn(-c2cc(NC(=O)CC)ccc2C(F)(F)F)c(=O)n1Cc1ccc(-c2ccccc2S(=O)(=O)NC(=O)c2ccccc2Cl)cc1
Second: CCCCc1nc2ccc(N(C)C(=O)NC)cc2n1Cc1ccc(-c2ccccc2C(=O)O)cc1
The melting point of the first is lower: 102 to 105 °C for the first, 163 to 165 °C for the second.

First: COc1ccc(CCc2cc(OC)c(OC)c(OC)c2)cc1
Second: CNC(=S)NS(=O)(=O)c1cc(CCNC(=O)c2cc(Cl)ccc2OC)ccc1OC
The melting point of the first is lower: 73 to 75 °C for the first, 190 to 193 °C for the second.

Compared with `Cn1ccc2ncnc(Oc3ccc(NC(=O)Nc4cccc(C(F)(F)F)c4)c(Cl)c3)c21`, `O=C(Nc1cc(N2CCNCC2)cc(C(F)(F)F)c1)c1cccc2cc(Oc3ccnc(NC(=O)C4CC4)c3)ccc12` is higher in melting point: 192 to 194 °C for the first, 244 to 247 °C for the second.

First: CCS(=O)(=O)N[C@H](C(=O)NCCc1ccc(OC/C=C/c2ccccc2)c(OC)c1)C(C)C
Second: COc1cccc(OC)c1C(=O)C=Cc1ccccc1
The melting point of the first is higher: 128 to 133 °C for the first, 123 to 124 °C for the second.

First: CN1CCN(C(=O)COC2c3ccccc3C(=O)N2c2ccc3ccc(Cl)nc3n2)CC1 (stereo not given)
Second: CN1CCN(c2cc3c(cc2F)c(=O)n(O)c(=O)n3-c2ccccc2F)CC1
The melting point of the first is higher: 175 °C for the first, 160 to 162 °C for the second.

First: CCCC[C@H](NC(=O)[C@H](CC(C)C)NC(=O)c1ccccc1C(F)(F)F)C(=O)CSCc1ccco1
Second: CC(C)C[C@H](NC(=O)OCC1CC=CCC1)C(=O)N[C@@H](Cc1ccccc1)C(=O)CSCc1ccco1 (stereo not given in full)
The melting point of the first is higher: 102 to 106 °C for the first, 85 to 87 °C for the second.

First: Oc1cc(C(O)(c2ccccc2)c2ccccc2)c2ccccc2n1
Second: c1ccc(Nc2nc(-c3ccncc3)nc3ccccc23)cc1
The melting point of the first is higher: greater than 350 °C for the first, 270 to 274 °C for the second.

Compared with `CN1c2ccccc2NC(=S)c2cscc21`, `CS(=O)(=O)c1ccc(N2CCc3ccccc32)c([N+](=O)[O-])c1` is lower in melting point: 203 to 204 °C for the first, 152 to 154 °C for the second.

First: Oc1cc(-c2ccccc2)nc2ccc(Cl)cc12
Second: Cc1cccc2c(-c3ccc(Cl)cc3)nccc12
The melting point of the first is higher: greater than 350 °C for the first, 122 to 124 °C for the second.

Compared with `CCOC(=O)c1cc2cc(C)c(C(F)(F)F)cc2[nH]1`, `Cc1nn(-c2cc(C(F)(F)F)ccc2Cl)cc1C(=O)O` is higher in melting point: 176 to 178 °C for the first, 206 to 208 °C for the second.

First: Clc1cnn(-c2ccc(CBr)c(Cl)c2)c1
Second: O=C(NN=Cc1c(O)cccc1Cl)c1ccc(Cl)cc1
The melting point of the first is lower: 77 to 78 °C for the first, 273 to 277 °C for the second.

Compared with `CCCCCCCCOCCCN=C=O`, `CCCCCCCCN(c1c([O-])[c+](N(CCCCCCCC)C2CC(C)(C)NC(C)(C)C2)[c+]1[O-])C1CC(C)(C)NC(C)(C)C1` is higher in melting point: 74 to 76 °C for the first, 171 to 175 °C for the second.

First: O=C(CNC(=O)C(Cc1ccccc1)P(=O)(O)O)OCc1ccccc1 (stereo not given)
Second: O=C(N[C@@H](Cc1ccccc1)C(=O)N[C@H](CO)Cc1c[nH]c2ccccc12)OCc1ccccc1
The melting point of the first is higher: 208 to 228 °C for the first, 154 to 156 °C for the second.

First: CCCn1cc(C(=O)NCc2ccc(Cl)cc2)c(=O)c2cc(CN3CCOCC3)sc21
Second: O=C(NCN1CCOCC1)c1cn(-c2ccc(F)cc2)c2cc(-c3ccncc3)ccc2c1=O
The melting point of the first is lower: 174 to 176 °C for the first, 258 to 260 °C for the second.

First: O=C1Nc2c(ccc3ccccc23)OC1c1ccc(Cl)cc1 (stereo not given)
Second: O=c1[nH]c2ncc(-c3ccc(O)cc3)nc2n1CCc1ccccc1
The melting point of the first is lower: 230 to 232 °C for the first, 283 to 284 °C for the second.

First: COc1cccc([C@H]2O[C@H](CC(=O)Nc3ccc(CCC(=O)O)cc3)C(=O)N(CC(C)(C)COC(C)=O)c3ccc(Cl)cc32)c1OC
Second: CCCCc1nc2cc(C(=O)OC)ccc2n1Cc1ccc(-c2ccccc2-c2nnn[nH]2)cc1
The melting point of the first is higher: 144 to 146 °C for the first, 134 to 136 °C for the second.

First: CON=C1C(C)(C)c2cc3c(cc2C1(C)C)N(SCc1nccc(OC)c1C)CN3
Second: COc1cc(C2=NC(C)(C)CO2)cc(OC)c1Br
The melting point of the first is lower: 100 °C for the first, 172 to 174 °C for the second.

First: O=C(c1sc(-c2nc3ccccc3[nH]2)nc1-c1ccco1)C1CCOCC1
Second: CCOc1ccccc1N1CCN(Cc2nc3ccccc3[nH]2)CC1
The melting point of the first is higher: 250 to 251 °C for the first, 95 to 100 °C for the second.

Compared with `O=c1nc(-c2ccccn2)sc2cc(F)ccc12`, `O=S(=O)(c1nc2c([nH]1)-c1ccc(F)cc1Oc1ccccc1-2)C(F)(F)C(F)F` is lower in melting point: 250 °C for the first, 171 to 173 °C for the second.

Compared with `CC=NN(C(=O)c1ccc(Cl)cc1)c1ccc(OC)c(F)c1`, `CC(C)N1NC(c2ccc(F)cc2)=c2cc(Cl)ccc2=CS1(=O)=O` is higher in melting point: 97 to 99 °C for the first, 147 to 151 °C for the second.

First: CCOCc1cc2cc(Cl)ccc2oc1=Nc1cccc(OC)c1
Second: CCOC(=O)C1C(=O)N(c2ccccc2)c2cc3ccoc3cc21 (stereo not given)
The melting point of the first is lower: 96.5 to 97.5 °C for the first, 108 to 110 °C for the second.

First: O=C1Cc2cc(Cl)c(N3CCCCC3)cc2O1
Second: COc1cccc(-n2c(=O)n(O)c(=O)c3cc(F)c(N4CCCC4)cc32)c1
The melting point of the first is lower: 129 to 131 °C for the first, 216 to 218 °C for the second.

First: CCCCNC(=O)[C@@H](C[C@H](O)[C@H](CC1CCCCC1)NC(=O)OC(C)(C)C)C(C)C
Second: Cn1c(=O)[nH]c2nc3ccc(OCCCC(=O)NC4CCCCC4)cc3cc21
The melting point of the first is lower: 115 to 118 °C for the first, 282 to 284 °C for the second.

Compared with `COCc1cc(OCc2ccccc2)c2nc(C)c(C)n2c1`, `O=C(/C=C/c1cccnc1)NCCc1cccc(OCc2ccccc2)c1` is higher in melting point: 107 °C for the first, 115 to 116 °C for the second.

First: O=c1[nH]c(=O)n(Cc2ccccc2)cc1C=NO
Second: O=C(c1ccccc1)c1ncc(=O)n(CC(F)(F)F)n1
The melting point of the first is lower: 172 to 174 °C for the first, 174 to 175 °C for the second.

First: O=C(c1cccs1)C(Br)c1ccc(F)cc1 (stereo not given)
Second: N#Cc1ccc(F)cc1-c1ccc(F)cc1
The melting point of the first is higher: 182 to 189 °C for the first, 111 to 113 °C for the second.

First: Cc1cnc(C(=O)O)c(-c2ccc(Cl)c(C(=O)NCC34CC5CC(CC(C5)C3)C4)c2)c1
Second: Cc1c(Cl)cccc1S(=O)(=O)Nc1nc(CC(=O)N2CCSCC2)cs1
The melting point of the first is higher: 125 to 130 °C for the first, 103 to 106 °C for the second.

First: CSc1nc(-c2ccc(Cl)cc2)c(CCC(=O)O)o1
Second: CCCCc1cccc2[nH]c(C(=O)O)cc(=O)c12
The melting point of the first is lower: 183 to 184 °C for the first, 269 to 270 °C for the second.

First: O=C(NCCSCc1cccc(Cl)c1)c1c(Br)cccc1Br
Second: O=S(=O)(Cl)c1ccc(CCc2ccccc2)cc1
The melting point of the first is lower: 55 to 57 °C for the first, 90 to 95 °C for the second.

First: COC(=O)C12CCC(C(=O)O)(CC1)CC2
Second: COc1cc(C(=O)N2CCC(C(=O)C3CCCCC3)CC2)c([N+](=O)[O-])cc1OC
The melting point of the first is higher: 169 to 173 °C for the first, 120 to 125 °C for the second.

Compared with `CN(CCCCCCNC(=O)NCCCOc1cccc(CN2CCCCC2)c1)CCN(Cc1ccc(F)cc1)c1ccccn1`, `CCCOc1cc(CCCOc2nn(Cc3ccccc3)cc2CC(=O)O)n(Cc2ccc(F)cc2F)n1` is higher in melting point: 65 to 69 °C for the first, 94 to 95 °C for the second.

First: CC(O)=C(C#N)C(=O)Nc1cccc(Cl)c1
Second: CC(=O)C(=Cc1ccccc1)C(C)=O
The melting point of the first is higher: 184 to 187 °C for the first, 165 to 167 °C for the second.

First: CCN(CC)C(=O)n1cnc(S(=O)(=O)C(F)(F)Br)n1
Second: COCC(O)c1nc2c(C(F)(F)F)cccc2c(O)c1C(=O)Nc1nccs1 (stereo not given)
The melting point of the first is lower: 74 to 75 °C for the first, 216 to 218 °C for the second.

First: CCCn1c(=O)c2c(NC)n[nH]c2n(Cc2ccncc2)c1=O
Second: CCOC(=O)C1=C(CC)NN=C(C(=O)OC)C1c1cccc([N+](=O)[O-])c1 (stereo not given)
The melting point of the first is higher: greater than 300 °C for the first, 139 °C for the second.

Compared with `O=C1N[C@@H](C=Cc2ccccc2)[C@H]1O`, `CC(C)(C)SC1CN(C(N)=O)CC1NS(=O)(=O)c1ccc(Oc2ccccc2)cc1` (stereo not given) is lower in melting point: 143 to 144 °C for the first, 132 to 133 °C for the second.

First: CC1Cc2cc3c(cc2C(c2ccc([N+](=O)[O-])cc2)=NN1C1=NC(=O)CCS1)OCO3 (stereo not given)
Second: COc1c(-c2cc3c(s2)CCC(CO)=C3)ccc2c(=O)c(C(=O)O)cn(C3CC3)c12
The melting point of the first is higher: 220 to 221 °C for the first, 205 to 206 °C for the second.

First: COC(=O)c1ccc([C@H](C)NC(C)=O)cc1
Second: CCOC(=O)C(=NO)c1ccc(Br)cc1
The melting point of the first is lower: 125 to 127 °C for the first, 163 to 164 °C for the second.

Compared with `Cc1c2c(c(C)c3c1NC(C)(C)C3)OC(C)(CI)C2` (stereo not given), `Cc1c(C)c2c(c(C)c1NC(=O)CC(C)(C)C)C(c1ccc(C(C)CC(=O)O)cc1)CO2` (stereo not given) is higher in melting point: 100 to 104 °C for the first, 209 to 210 °C for the second.

Compared with `CC12C=CC(=O)C=C1CCC1C3CC(OCCOC4CCCCO4)C(O)(C(=O)CCl)C3(C)CC(O)C12F` (stereo not given), `O[C@H]1CC[C@H](c2ccc(Br)cc2)CC1` is lower in melting point: 168 to 170 °C for the first, 110 to 111 °C for the second.

First: O=C(O)COCCOc1c(-c2cccc(C(F)(F)F)c2)cc(C(=O)NCCCCCCc2ccccc2)cc1-c1cccc(C(F)(F)F)c1
Second: CC(C)(C)OC(=O)CON=C(C(=O)O)c1ccsc1
The melting point of the first is lower: 74.7 to 75.9 °C for the first, 103 to 104 °C for the second.

First: Oc1cc2c(cc1Cl)OCO2
Second: NS(=O)(=O)c1ccc(NC(=O)CCl)c(Cl)c1
The melting point of the first is lower: 95 °C for the first, 162 to 164 °C for the second.

First: CCC(=O)OCC(OC(=O)CC)C1OC(SC)C(OC(=O)CC)C1OC(=O)CC (stereo not given)
Second: Nc1ccc(N)c(I)c1
The melting point of the first is lower: 62 to 63 °C for the first, 95 to 99 °C for the second.
